# Test results taken from patent publication US11612581B2, “Cannabis and derivatives thereof for the treatment of pain and inflammation related with dental pulp and bone regeneration related to dental jaw bone defects” (CANNIBITE BVBA, priority 2017, dated 2023).
# Assays:
# [1] = relative to THC; cited from earlier work
# [2] = test system: bacteria's from the nerve fiber; test: Bacteria on nerve fiber of pulp removed by pulpectomy, phase contrast microscopy without staining; assay type: cell-based
# Protocol: A patent diagnosed with acute pulpitis with severe signs of pain on cold irritants, percussion pain with x-ray deep caries radiolucent areas adjacent to the coronal pulp. Hyperemia is evident in the dental canal system when opening of the coronal part of pulp chamber.
# Pulpectomy (Removal of the entire pulp structure of a tooth, including the pulp tissue in the roots) was performed. The pulp was analyzed by phase contrast microscopy without staining.
# Following Pulpectomy a solution of 0.1 ml CBD (25%) was applied for 1 min.
# The same application was made with a Clorhexidine gluconate 2% solution used in endodontics to rinse canal system of the roots. A reduction of less than 20% in bacteria's was observed.
# [3] = test system: pulp extract from the teeth; test: Pulp extract treated in-vitro and sent to pathology lab (samples 1a, 1b); assay type: cell-based, human; conditions: 0.1 ml of Clorhexidine Gluconate 2% (sample 1a) or CBD 25% (sample 1b)
# Protocol: The pulp extract from the teeth was treated in-vitro and was sent to pathology lab. Pulp was extracted and separated to two samples:
# Sample 1a was treated with 0.1 ml Clorhexidine Gluconate 2%.
# [4] = test system: chronic irreversible pulpitis combined with periapical lesion; test: Root canal treatment with CBD added to dressing and sealer, bone regeneration by X-ray (Patient 1); assay type: in vivo, human
# Protocol: Histology slides prepared after pulpectomy of a second mandibular molar diagnosed with chronic irreversible pulpitis combined with periapical lesion (FIG. 6).
# The treatment was performed with regular methods, in 2 steps 1 week rest. In the temporary dressing of the root canal medication Hydroxide Calcium was introduced 0.1 ml of CBD (25%) as well in the permanent sealer EWT Ken pulp sealer was introduced 0.5 ml of CBD (25%), pulp canal system sealed with sealer and gutta-percha.
# With standard treatment for periapical lesion, regeneration is usually noticed 6 months after treatment.
# vestibular canal pulp = test: Extracted dental pulp of hemisected wisdom tooth treated with CBD solution (samples 3a, 3b); assay type: cell-based, human; conditions: sample 3b, 0.1 ml 25% solution, compared to 3a (Formalin)
# Protocol: A patient with chronic irreversible pulpitis element 28 wisdom tooth.
# The element was hemisected and dental pulp extracted from tooth.
# Sample 3a: Palatinal pulp was placed in Formalin.
# Sample 3b: 0.1 ml CDB (25%) solution was applied to the vestibular canal pulp.
# live bacterial cells = test: Anti-bacterial activity on inflamed dental pulp and dental plaque samples, Dojindo staining, Cytation 5 imaging; assay type: cell-based; conditions: incubated for 5 min
# Protocol: CDB Solutions: Two CBD solutions were prepared at concentrations of 12.5% and 25% by dissolving CDB (as powder, 98% purity) in methanol to obtain the desired concentration.
# Samples of inflamed dental pulp and dental plaque were collected from various subjects and incubated at 37° C. for 24 hours
# The samples where then treated with CBD solutions (12.5% and 25%) and incubated for 5 min. The samples were stained with Dojindo Rapid staining kit BS02 and evaluated under a Cytation 5 cell imaging microscope.
# mid-femoral fractures = conditions: rats with mid-femoral fractures, after eight weeks; cited from earlier work
SMILES,less active than THC [1] [%],"reduction in bacteria's ([2]; Clorhexidine gluconate 2% solution, same application)",pathology lab findings of treated pulp sample [3],reduction of bacteria's from the nerve fiber ([2]; 0.1 ml CBD (25%) applied for 1 min following pulpectomy),bone regeneration on re-examination ([4]; 8 weeks after treatment),"bone regeneration in the apical region by X-ray ([4]; after 1 week, 0.1 ml CBD (25%) in Hydroxide Calcium dressing, 0.5 ml CBD (25%) in sealer)",inflammation and infection of pulp sample (vestibular canal pulp),reduction in live bacterial cells as compared to an untreated sample (live bacterial cells; 12.5% CBD solution) [%],reduction in live bacterial cells as compared to an untreated sample (live bacterial cells; 25% CBD solution) [%],bone fractures healing (mid-femoral fractures)
CCCCCc1cc(O)c2c(c1)OC(C)(C)[C@@H]1CC=C(C)C[C@@H]21 [Δ8-THC],~20,,,,,,,,,
N=C(NCCCCCCNC(=N)NC(=N)Nc1ccc(Cl)cc1)NC(=N)Nc1ccc(Cl)cc1.O=C(O)[C@H](O)[C@@H](O)[C@H](O)[C@H](O)CO.O=C(O)[C@H](O)[C@@H](O)[C@H](O)[C@H](O)CO [Clorhexidine gluconate],,less than 20%,"debris, bacteria, and enamel cement",,,,,,,
"C=C(C)[C@@H]1CCC(C)=C[C@H]1c1c(O)cc(CCCCC)cc1O [CBD, cannabidiol]",,,"connective tissue, bone and no bacteria",total reduction,total regeneration,bone regeneration was identified,no inflammation and no infection,> 75,> 90,enhances bone fractures healing
